# Results published in the NIST ThermoML archive (doi:10.1021/je7000254).
# Assay: xn = mol fraction of the nth substance listed
# Settings: Fluid (supercritical or subcritical phases), Taylor-Aris chromatographic method, x1 = 0
SMILES,"binary diffusion coefficient (313.16 K, 15000 kPa)","binary diffusion coefficient (313.16 K, 20000 kPa)","binary diffusion coefficient (313.16 K, 25000 kPa)","binary diffusion coefficient (313.16 K, 30000 kPa)","binary diffusion coefficient (313.16 K, 35000 kPa)","binary diffusion coefficient (323.16 K, 15000 kPa)","binary diffusion coefficient (323.16 K, 20000 kPa)","binary diffusion coefficient (323.16 K, 25000 kPa)","binary diffusion coefficient (323.16 K, 30000 kPa)","binary diffusion coefficient (323.16 K, 35000 kPa)","binary diffusion coefficient (333.16 K, 15000 kPa)","binary diffusion coefficient (333.16 K, 20000 kPa)","binary diffusion coefficient (333.16 K, 25000 kPa)","binary diffusion coefficient (333.16 K, 30000 kPa)","binary diffusion coefficient (333.16 K, 35000 kPa)"
"Cc1cc(C)cc(C)c1 [1,3,5-trimethylbenzene] + O=C=O",1.04e-08 m2/s,9.15e-09 m2/s,8.21e-09 m2/s,7.78e-09 m2/s,7.46e-09 m2/s,1.19e-08 m2/s,1.11e-08 m2/s,9.33e-09 m2/s,9.23e-09 m2/s,8.6e-09 m2/s,1.42e-08 m2/s,1.23e-08 m2/s,1.15e-08 m2/s,1.04e-08 m2/s,9.89e-09 m2/s
C=Cc1ccccc1 [styrene] + O=C=O,1.19e-08 m2/s,1.08e-08 m2/s,9.58e-09 m2/s,8.74e-09 m2/s,8.27e-09 m2/s,1.32e-08 m2/s,1.12e-08 m2/s,1.06e-08 m2/s,9.2e-09 m2/s,8.77e-09 m2/s,1.55e-08 m2/s,1.41e-08 m2/s,1.22e-08 m2/s,1.09e-08 m2/s,1.02e-08 m2/s
Nc1ccccc1 [aniline] + O=C=O,1.02e-08 m2/s,9.75e-09 m2/s,9.06e-09 m2/s,8.43e-09 m2/s,7.76e-09 m2/s,1.18e-08 m2/s,1.08e-08 m2/s,9.66e-09 m2/s,9.1e-09 m2/s,8.7e-09 m2/s,1.33e-08 m2/s,1.19e-08 m2/s,1.1e-08 m2/s,1.02e-08 m2/s,9.47e-09 m2/s
